Experiment [1] has as its target GDP-bound KRAS wild-type protein (Homo sapiens, UniProt P01116). As to the kind of experiment: Binding to KRAS by surface plasmon resonance (SPR), dissociation constant KD. The settings on record: Single Cycle Kinetics, 1:1 binding model. An outline of the steps: (§1)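 SPR, 30°C: Avi-biotin RAS·GDP captured via Biotin CAPture (~100–300 RU); running buffer HBS pH 7.4, 1 mM DTT, 10 mM MgCl2, 0.01% Tween 20, 10 µM GDP, 4% DMSO. Single-cycle kinetics, 100 µL/min, 75 s injections; 1:1 model → KD.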

Experiment [2] addresses GDP-bound NRAS wild-type protein (Homo sapiens, UniProt P01111). As to the kind of experiment: Binding to NRAS by surface plasmon resonance (SPR), KD and KD ratio to KRAS. The note with it: ratio of KD with respect to GDP-bound NRAS wild-type protein to KD with respect to KRAS. In outline:
as §1

The target in experiment [3] is HRAS wild-type protein (Homo sapiens, UniProt P01112). As to the kind of experiment: Binding to HRAS by surface plasmon resonance (SPR), KD and KD ratio to KRAS. The note with it: ratio of KD with respect to HRAS wild-type protein to KD with respect to KRAS. In outline:
as §1

The subject of experiment [4] is human lung cancer strain NCI-H441. The experiment in a line: NCI-H441 cell proliferation inhibitory activity (CellTiter-Glo, 4 days). The note with it: 50% proliferation inhibitory concentration, four days, read-out: NCl-H441 IC50. In kind it is cell-based. In outline:
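Proliferation was scored by […] measured after the reagent was added to cultures kept at 37°C in 5% carbon dioxide.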

Sequence of HRAS wild-type protein (P01112 whole entry): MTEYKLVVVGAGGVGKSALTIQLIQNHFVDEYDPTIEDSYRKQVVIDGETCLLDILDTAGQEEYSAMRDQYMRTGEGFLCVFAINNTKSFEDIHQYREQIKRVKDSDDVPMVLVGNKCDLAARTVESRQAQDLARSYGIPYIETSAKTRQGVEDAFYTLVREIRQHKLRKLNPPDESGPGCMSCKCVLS
Sequence of GDP-bound NRAS wild-type protein (P01111 whole entry): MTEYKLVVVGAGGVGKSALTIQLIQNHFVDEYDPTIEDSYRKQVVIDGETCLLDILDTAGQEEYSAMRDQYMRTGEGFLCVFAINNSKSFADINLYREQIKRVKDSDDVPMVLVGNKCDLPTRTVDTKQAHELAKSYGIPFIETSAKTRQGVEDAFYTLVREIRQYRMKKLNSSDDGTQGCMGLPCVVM
Sequence of GDP-bound KRAS wild-type protein (P01116 1-188 isoform P01116-2): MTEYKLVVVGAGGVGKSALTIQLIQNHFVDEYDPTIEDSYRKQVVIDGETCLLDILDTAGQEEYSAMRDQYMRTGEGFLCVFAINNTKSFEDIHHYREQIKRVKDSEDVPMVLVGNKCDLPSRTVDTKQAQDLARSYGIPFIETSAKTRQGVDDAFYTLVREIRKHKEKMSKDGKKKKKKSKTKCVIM

As for `CCO[C@@H]1C[C@H]2C(=O)NC3(CCC3)C(=O)N(C)[C@@H](C(CC)CC)C(=O)N(C)[C@H](C(=O)N(C)C)CC(=O)N(C)[C@@H](CC)C(=O)N[C@@H]([C@@H](C)CC)C(=O)N(C)CC(=O)N(C)[C@H]3C/C=C\CCN(C3=O)[C@@H](Cc3ccc(C(F)(F)F)cc3)C(=O)N(C)CC(=O)N[C@@H](CCc3cc(F)c(Cl)c(F)c3)C(=O)N2C1` [PP1230], the Kd in experiment [1] stood at 0.77 nM. Moreover, the “NRAS /KRAS” value in experiment [2] is “A (a compound having 10 or more and less than 20 is denoted as A)”. Besides, the “HRAS /KRAS” value in experiment [3] is “A (a compound having 10 or more and less than 20 is denoted as A)”. Also, the IC50 in experiment [4] came to 110 nM.
The compound `CCC[C@H]1C(=O)N[C@@H]([C@@H](C)CC)C(=O)N(C)CC(=O)N(C)[C@H]2C/C=C\CCN(C2=O)[C@@H](Cc2ccc(C(F)(F)F)cc2)C(=O)N(C)CC(=O)N[C@@H](CCc2cc(F)c(Cl)c(F)c2)C(=O)N2C[C@H](OCC)C[C@H]2C(=O)NC2(CCC2)C(=O)N(C)[C@@H](C(CC)CC)C(=O)N(C)[C@H](C(=O)N(C)C)CC(=O)N1C` [PP1231] returned a Kd in experiment [1] of 0.56 nM. Moreover, the “NRAS /KRAS” value in experiment [2] is reported as “AA (a compound having 20 or more is denoted as AA)”. In addition, in experiment [3], the “HRAS /KRAS” value was “A (a compound having 10 or more and less than 20 is denoted as A)”. In addition, in experiment [4], the IC50 came to 23.1 nM.
`CCO[C@@H]1C[C@H]2C(=O)NC3(CCC3)C(=O)N(C)[C@@H](C3CCCC3)C(=O)N(C)[C@@H](C(=O)N(C)C)CC(=O)N(C)[C@@H](CC)C(=O)N[C@@H]([C@@H](C)CC)C(=O)N(C)CC(=O)N(C)[C@H]3C/C=C\CCN(C3=O)[C@@H](Cc3ccc(C(F)(F)F)cc3)C(=O)N(C)CC(=O)N[C@@H](CCc3cc(F)c(C(F)(F)F)c(F)c3)C(=O)N2C1` [PP1234] yielded a Kd in experiment [1] of 3.8 nM. For the same compound, in experiment [2], the “NRAS /KRAS” value is “B (a compound having 3 or more and less than 10 is denoted as B)”. For the same compound, the “HRAS /KRAS” value in experiment [3] was “C (A compound having a KD ratio of 0.1 or more and less than 3 is denoted as C)”. Besides, in experiment [4], the IC50 was 398 nM.
`CCCCCC[C@H]1C(=O)N[C@@H]([C@@H](C)CC)C(=O)N(C)CC(=O)N(C)[C@H]2C/C=C\CCN(C2=O)[C@@H](Cc2ccc(C(F)(F)F)cc2)C(=O)N(C)CC(=O)N[C@@H](CCc2cc(F)c(C(F)(F)F)c(F)c2)C(=O)N2C[C@H](OCC)C[C@H]2C(=O)NC2(CCC2)C(=O)N(C)[C@@H](C2CCCC2)C(=O)N(C)[C@H](C(=O)N(C)C)CC(=O)N1C` [PP1242]: the Kd in experiment [1] stood at 0.076 nM. In addition, the “NRAS /KRAS” value in experiment [2] was “A (a compound having 10 or more and less than 20 is denoted as A)”. Also, the “HRAS /KRAS” value in experiment [3] is “A (a compound having 10 or more and less than 20 is denoted as A)”. For the same compound, in experiment [4], the IC50 amounted to 12.8 nM.
`CCO[C@@H]1C[C@H]2C(=O)NC3(CCC3)C(=O)N(C)[C@@H](C3CCCC3)C(=O)N(C)[C@H](C(=O)N(C)C)CC(=O)N(C)[C@@H](CC(C)C)C(=O)N[C@@H]([C@@H](C)CC)C(=O)N(C)CC(=O)N(C)[C@H]3C/C=C\CCN(C3=O)[C@@H](Cc3ccc(C(F)(F)F)cc3)C(=O)N(C)CC(=O)N[C@@H](CCc3ccc(C(F)(F)F)c(OC)c3)C(=O)N2C1` [PP1245] returned a Kd in experiment [1] of 0.06 nM. For the same compound, in experiment [2], the “NRAS /KRAS” value is “A (a compound having 10 or more and less than 20 is denoted as A)”. For the same compound, in experiment [3], the “HRAS /KRAS” value was “B (a compound having 3 or more and less than 10 is denoted as B)”. Besides, the IC50 in experiment [4] is 3.7 nM.
In the case of `CCCCCC[C@H]1C(=O)N[C@@H]([C@@H](C)CC)C(=O)N(C)CC(=O)N(C)[C@H]2C/C=C\CCN(C2=O)[C@@H](Cc2ccc(C(F)(F)F)cc2)C(=O)N(C)CC(=O)N[C@@H](CCc2ccc(C(F)(F)F)c(OC)c2)C(=O)N2C[C@H](OCC)C[C@H]2C(=O)NC2(CCC2)C(=O)N(C)[C@@H](C2CCCC2)C(=O)N(C)[C@H](C(=O)N(C)C)CC(=O)N1C` [PP1246], the Kd in experiment [1] was 0.081 nM. In addition, in experiment [2], the “NRAS /KRAS” value is “A (a compound having 10 or more and less than 20 is denoted as A)”. For the same compound, in experiment [3], the “HRAS /KRAS” value is “A (a compound having 10 or more and less than 20 is denoted as A)”. The half-maximal inhibitory concentration (IC50) in experiment [4] is 9 nM.
In turn, `CCO[C@@H]1C[C@H]2C(=O)NC3(CCC3)C(=O)N(C)[C@@H](C3CCCC3)C(=O)N(C)[C@H](C(=O)N(C)C)CC(=O)N(C)[C@@H](CC3CC3)C(=O)N[C@@H]([C@@H](C)CC)C(=O)N(C)CC(=O)N(C)[C@H]3C/C=C\CCN(C3=O)[C@@H](Cc3ccc(C(F)(F)F)cc3)C(=O)N(C)CC(=O)N[C@@H](CCc3ccc(C(F)(F)F)c(OC)c3)C(=O)N2C1` [PP1247] returned a Kd in experiment [1] of 0.046 nM. In addition, the “NRAS /KRAS” value in experiment [2] is “A (a compound having 10 or more and less than 20 is denoted as A)”. In addition, the “HRAS /KRAS” value in experiment [3] is “A (a compound having 10 or more and less than 20 is denoted as A)”. Also, in experiment [4], the half-inhibitory concentration (IC50) amounted to 6.4 nM.
For the compound `CCO[C@@H]1C[C@H]2C(=O)NC3(CCC3)C(=O)N(C)[C@@H](C3CCCC3)C(=O)N(C)[C@H](C(=O)N(C)C)CC(=O)N(C)[C@@H](CC3CCCC3)C(=O)N[C@@H]([C@@H](C)CC)C(=O)N(C)CC(=O)N(C)[C@H]3C/C=C\CCN(C3=O)[C@@H](Cc3ccc(C(F)(F)F)cc3)C(=O)N(C)CC(=O)N[C@@H](CCc3ccc(C(F)(F)F)c(OC)c3)C(=O)N2C1` [PP1248], binding in experiment [1] was characterised by a dissociation constant (Kd) of 0.069 nM. In addition, the “NRAS /KRAS” value in experiment [2] is “A (a compound having 10 or more and less than 20 is denoted as A)”. Also, the “HRAS /KRAS” value in experiment [3] was “A (a compound having 10 or more and less than 20 is denoted as A)”. In addition, the IC50 in experiment [4] was 7.3 nM.
In experiment [1], `CCO[C@@H]1C[C@H]2C(=O)NC3(CCC3)C(=O)N(C)[C@@H](C3CCCC3)C(=O)N(C)[C@H](C(=O)N(C)C)CC(=O)N(C)[C@@H](CC)C(=O)N[C@@H]([C@@H](C)CC)C(=O)N(C)CC(=O)N(C)[C@H]3C/C=C\CCN(C3=O)[C@@H](Cc3ccc(C(F)(F)F)cc3)C(=O)N(C)CC(=O)N[C@@H](CCc3ccc(Cl)c(Cl)c3)C(=O)N2C1` [PP1249] returned a Kd of 0.18 nM. In experiment [2], the “NRAS /KRAS” value was “A (a compound having 10 or more and less than 20 is denoted as A)”. Also, the “HRAS /KRAS” value in experiment [3] is “A (a compound having 10 or more and less than 20 is denoted as A)”. Further, the IC50 in experiment [4] came out at 55.4 nM.
`CCO[C@@H]1C[C@H]2C(=O)NC3(CCC3)C(=O)N(C)[C@@H](C3CCCC3)C(=O)N(C)[C@H](C(=O)N(C)C)CC(=O)N(C)[C@@H](CC(C)C)C(=O)N[C@@H]([C@@H](C)CC)C(=O)N(C)CC(=O)N(C)[C@H]3C/C=C\CCN(C3=O)[C@@H](Cc3ccc(C(F)(F)F)cc3)C(=O)N(C)CC(=O)N[C@@H](CCc3ccc(Cl)c(Cl)c3)C(=O)N2C1` [PP1251] showed a Kd in experiment [1] of 0.18 nM. Moreover, in experiment [2], the “NRAS /KRAS” value is recorded as “AA (a compound having 20 or more is denoted as AA)”. The “HRAS /KRAS” value in experiment [3] is “A (a compound having 10 or more and less than 20 is denoted as A)”. Also, the IC50 in experiment [4] turned out to be 10.2 nM.
Turning to `CCCCCC[C@H]1C(=O)N[C@@H]([C@@H](C)CC)C(=O)N(C)CC(=O)N(C)[C@H]2C/C=C\CCN(C2=O)[C@@H](Cc2ccc(C(F)(F)F)cc2)C(=O)N(C)CC(=O)N[C@@H](CCc2ccc(Cl)c(Cl)c2)C(=O)N2C[C@H](OCC)C[C@H]2C(=O)NC2(CCC2)C(=O)N(C)[C@@H](C2CCCC2)C(=O)N(C)[C@H](C(=O)N(C)C)CC(=O)N1C` [PP1252], the dissociation constant Kd in experiment [1] came out at 0.3 nM. Besides, the “NRAS /KRAS” value in experiment [2] is on record as “AA (a compound having 20 or more is denoted as AA)”. In addition, the “HRAS /KRAS” value in experiment [3] is “A (a compound having 10 or more and less than 20 is denoted as A)”. Also, the IC50 in experiment [4] turned out to be 51.2 nM.

These data come from patent EP4603105A1, “PHARMACEUTICAL COMPOSITION CONTAINING CYCLIC COMPOUND HAVING SELECTIVE KRAS INHIBITORY EFFECT AGAINST HRAS AND NRAS” (CHUGAI SEIYAKU KABUSHIKI KAISHA, priority 2022, dated 2024).
